We go through one compound from patent US12697316B2, “Combination therapy with acetyl-leucine and miglustat” (INTRABIO LTD., priority 2019, dated 2026).

The conditions of data set [1]: cited from earlier work.
In data set [2] the test system is Npc1^−/− mice. Kind of data set: CatWalk automated gait analysis in Npc1−/− mice. It is filed as in vivo, mouse. As to conditions: Npc1−/− mice, gait analysis at 10 weeks of age. The method, then: (§1) BALBc/NPC ^h and Sandhoff mice were bred as heterozygotes to generate affected mice (Npc1^−/−, Hexb^−/−) and controls (Npc^+/+, Hexb^+/+). The mice were housed under non-sterile conditions, with food and water available ad libitum. All experiments were conducted using protocols approved by the UK Home Office Animal Scientific Procedures Act, 1986.
(§2) ADLL and enantiomers (ADLL: Molekula #73891210, ALL: Sigma Aldrich #441511, ADL: Sigma #A0876) were administered as dry admix in powdered mouse diet (PicoLab Rodent Diet 20/5053, LabDiet) at a dose of 0.1 g/kg/day for in vivo studies. Treatment groups for in vivo study consisted of at least 5 mice per group. In vitro studies were conducted with each compound dissolved in PBS to generate a 50 mM stock solution and diluted to a 1 mM working concentration in media (DMEM High Glucose-Gibco #10566016).
(§3) Miglustat (Monsanto/Oxford GlycoSciences) was administered as a dry solid mixed with powdered chow (600 mg/kg/day) (see above) alone or in combination with ADLL.
(§4) The weight and activity of each mouse was recorded weekly until reaching the humane endpoint (defined as a loss of 1 g body weight within 24 h). Gait analysis was performed using CatWalk 10.5 system (Noldus) according to the manufacturer's instructions and five runs were recorded per animal at each time point. The camera was set to 40 cm below the walkway, the walkway was approximately 4 cm wide, and detection settings set to camera gain 14.05 and green intensity 0.12. Motor function was measured using an accelerating NG Rota Rod for mice (Ugo Basile) starting from 1 rpm to 10 rpm, accelerating every 30 seconds by one rpm. Bar crossing experiments on Sandhoff animals were conducted to measure motor strength and coordination. The apparatus used was modified from published studies. Briefly, a metal bar (1.2 mm width and 26 cm in length) was suspended horizontally between two wooden supports 30 cm high over a cushioned surface and animals were allowed to grasp the center of the bar with forepaws only, the tail was released, and the clock was started. Latency to cross or fall from the bar was scored, with 120 sec, maximum, to termination of each trial. A score was given to each animal between +120 and −120. If crossing time was greater than 0, then score=120−CT; if falling time was greater than 0, the score=FT−120.

Data set [3] concerns Npc1^−/− mice. Kind of data set: Survival / life span of Npc1−/− mice. It is filed as in vivo, mouse. The settings on record: Npc1−/− mice; ADLL 0.1 g/kg/day, miglustat 600 mg/kg/day in chow; untreated Npc1−/− 87 days. The method, then: as §1, §2, §3
as §4, with “Briefly, a metal bar (1.2 mm width and 26 cm in length) was suspended horizontally between two wooden supports 30 cm high over a cushioned surface and animals were allowed to grasp the center of the bar with forepaws only, the tail was released, and the clock was started.” left out, “A score was given to each animal between +120 and −120. If crossing time was greater than 0, then score=120−CT; if falling time was greater than 0, the score=FT−120.” left out

On to `CCCCN1C[C@H](O)[C@@H](O)[C@H](O)[C@H]1CO` [miglustat, 1,5-(butylimino)-1,5-dideoxy-D-glucitol], for which the “adverse effects in the treatment subjects” value in data set [1] (NPC first-line therapy, Champion et al. 2010) is “causes unwanted weight loss and gastrointestinal disturbances”. Further, the weight loss result in data set [1] (known effect, through appetite suppression) is “known to cause weight loss through appetite suppression”. For the same compound, in the data set with Npc1^−/− mice [2], the Stand mean result is “significantly improved” and the “hind Duty Cycle percentages” value is listed as “showed no benefit”. Also, the median survival in the data set with Npc1^−/− mice [3] is on record as 117 days.
